From publication PMC7668422 (Anesthesia and analgesia, 2020)

Columns and labels:
KOR = settings: no reference given; cited from earlier work
[1] = cited from earlier work
κ-opioid receptor (KOR) = κ-opioid receptor (KOR) (Homo sapiens, UniProt P41145); test: biochemical; type: binding
human KOR [2] = molecular target: T1, human KOR (Homo sapiens, UniProt P41145); test: biochemical; type: biochemical
Target sequence in this assay (P41145 whole entry, the tested form may be a part): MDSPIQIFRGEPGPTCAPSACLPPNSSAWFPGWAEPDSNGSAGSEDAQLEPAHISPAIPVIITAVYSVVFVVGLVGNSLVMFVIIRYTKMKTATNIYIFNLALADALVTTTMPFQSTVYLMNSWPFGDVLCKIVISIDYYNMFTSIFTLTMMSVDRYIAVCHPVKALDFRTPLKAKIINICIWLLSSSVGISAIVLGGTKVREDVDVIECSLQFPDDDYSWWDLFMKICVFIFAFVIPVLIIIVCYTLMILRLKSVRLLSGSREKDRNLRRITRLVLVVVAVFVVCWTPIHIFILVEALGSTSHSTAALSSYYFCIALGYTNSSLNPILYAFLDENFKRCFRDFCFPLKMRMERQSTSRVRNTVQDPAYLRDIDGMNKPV
Target sequence in this assay (P63096 2-354 partner limits assumed): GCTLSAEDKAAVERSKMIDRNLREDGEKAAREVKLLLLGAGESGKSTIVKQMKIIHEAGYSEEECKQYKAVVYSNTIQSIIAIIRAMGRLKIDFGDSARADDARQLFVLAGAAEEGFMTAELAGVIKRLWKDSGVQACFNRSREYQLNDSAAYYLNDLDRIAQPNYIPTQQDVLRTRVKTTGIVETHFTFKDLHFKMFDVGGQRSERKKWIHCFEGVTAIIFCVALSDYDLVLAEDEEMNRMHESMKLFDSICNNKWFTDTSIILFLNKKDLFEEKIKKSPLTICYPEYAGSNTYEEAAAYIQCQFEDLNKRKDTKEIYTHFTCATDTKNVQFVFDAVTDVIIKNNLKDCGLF
Target sequence in this assay (P62873 2-340 partner limits assumed): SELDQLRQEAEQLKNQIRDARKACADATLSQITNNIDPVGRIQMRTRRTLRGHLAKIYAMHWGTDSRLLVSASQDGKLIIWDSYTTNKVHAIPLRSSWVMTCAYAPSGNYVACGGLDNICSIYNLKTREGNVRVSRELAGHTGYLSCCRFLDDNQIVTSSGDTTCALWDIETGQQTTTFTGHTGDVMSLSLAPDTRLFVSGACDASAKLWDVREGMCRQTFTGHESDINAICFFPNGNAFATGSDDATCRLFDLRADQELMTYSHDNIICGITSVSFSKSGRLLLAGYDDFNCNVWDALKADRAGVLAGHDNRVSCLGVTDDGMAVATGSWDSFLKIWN
Target sequence in this assay (P59768 2-68 partner limits assumed): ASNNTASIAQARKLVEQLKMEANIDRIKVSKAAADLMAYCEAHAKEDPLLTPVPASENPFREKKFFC

[3] = molecular target: mKOR-tdTomato fusion protein in Neuro2A cells (Mus musculus, UniProt P33534); test: KOR internalization in N2A-mKOR-tdT cells, fluorescence microscopy; type: cell-based
Sequence of mKOR-tdTomato fusion protein in Neuro2A cells (P33534 whole entry, the tested form may be a part): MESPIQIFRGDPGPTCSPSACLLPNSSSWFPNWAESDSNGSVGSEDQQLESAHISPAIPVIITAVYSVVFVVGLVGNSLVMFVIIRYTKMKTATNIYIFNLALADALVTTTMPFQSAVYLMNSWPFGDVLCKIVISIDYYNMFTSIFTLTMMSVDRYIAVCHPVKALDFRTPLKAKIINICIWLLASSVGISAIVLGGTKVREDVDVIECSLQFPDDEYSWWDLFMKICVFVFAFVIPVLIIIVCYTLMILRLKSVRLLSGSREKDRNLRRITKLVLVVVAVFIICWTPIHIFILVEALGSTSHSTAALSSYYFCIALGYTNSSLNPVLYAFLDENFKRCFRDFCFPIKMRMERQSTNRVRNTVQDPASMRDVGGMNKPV

μ-opioid receptor (MOR) [4] = molecular target: T2, μ-opioid receptor (MOR) (Homo sapiens, UniProt P35372); settings: cited from earlier work
T2 sequence (P35372 whole entry, species assumed): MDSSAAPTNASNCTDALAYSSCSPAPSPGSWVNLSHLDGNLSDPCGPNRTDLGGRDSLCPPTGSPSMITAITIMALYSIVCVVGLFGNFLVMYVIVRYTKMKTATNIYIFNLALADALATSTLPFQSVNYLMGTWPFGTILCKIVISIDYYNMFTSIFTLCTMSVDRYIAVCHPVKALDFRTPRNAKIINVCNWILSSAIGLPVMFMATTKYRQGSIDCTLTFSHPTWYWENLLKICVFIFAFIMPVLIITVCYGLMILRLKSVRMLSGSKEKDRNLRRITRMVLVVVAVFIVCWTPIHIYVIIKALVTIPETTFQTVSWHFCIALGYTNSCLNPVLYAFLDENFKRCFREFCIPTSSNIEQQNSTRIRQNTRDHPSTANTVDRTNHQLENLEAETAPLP

human KOR [5] = molecular target: T1, human KOR; type: cell-based
Target sequence in this assay (P41145 whole entry, the tested form may be a part): as the sequence (P41145 whole entry, the tested form may be a part) above

μ-opioid receptor (MOR) [6] = molecular target: T2, μ-opioid receptor (MOR); test: Affinity for the μ-opioid receptor; type: binding; settings: mean ± SD; no method described

Sequence of κ-opioid receptor (KOR) (P41145 whole entry): as the sequence (P41145 whole entry, the tested form may be a part) above

Compound: CC(C)[C@@H](CN1CC[C@@](C)(c2cccc(O)c2)[C@@H](C)C1)NC(=O)[C@H]1Cc2ccc(O)cc2CN1 [JDTic]
- agonistic activity at KOR (KOR): no agonistic activity

Compound: Oc1ccc2c(c1)[C@@]13CCCC[C@@]1(O)[C@@H](C2)N(CC1CCC1)CC3 [butorphanol]
- analgesic potency relative to morphine ([1]; clinical trial for perioperative pain management): ~6 times
- potency relative to morphine ([1]; discussion statement, no reference given): 5–7 fold
- Kd (κ-opioid receptor (KOR)): 0.1 ± 0.02 nM
- Ki (κ-opioid receptor (KOR)): 0.1 ± 0.02 nM
- affinity for KOR relative to μ-opioid receptor (κ-opioid receptor (KOR)): about twenty-fold
- EC50 (human KOR [2]): 2.8 nM
- agonist character, G protein activation pathway (human KOR [2]): partial, high affinity agonist
- maximal G protein activation relative to salvinorin A (human KOR [2]): about 50%
- KOR internalization ([3]; butorphanol 0.1 μM to 8 μM, from 5 min): KOR internalization was observed
- agonist character at MOR (μ-opioid receptor (MOR) [4]): partial μ-opioid receptor (MOR) agonist
- agonist character, β-arrestin recruitment pathway (human KOR [5]): full agonist
- affinity for the μ-opioid receptor (μ-opioid receptor (MOR) [6]): 2.4 ± 1.2 nM

Compound: C[C@@]12CCCCC[C@@H](Cc3ccc(O)cc31)[C@@H]2N [dezocine]
- Ki (κ-opioid receptor (KOR)): 56 ± 2 nM
- effect on butorphanol-induced KOR internalization ([3]; 2 μM dezocine co-incubated with 0.4 μM butorphanol for 30 min): abolish the KOR internalization

Compound: COC(=O)[C@@H]1C[C@H](OC(C)=O)C(=O)[C@H]2[C@@]1(C)CC[C@H]1C(=O)O[C@H](c3ccoc3)C[C@]21C [salvinorin A]
- agonist character, G protein activation pathway (human KOR [2]): full agonist
- concentration giving full activation of the receptor (human KOR [2]): above 1 μM
